Measurements as given in patent US8236339B2, “Therapeutic delivery of carbon monoxide” (priority 2001, dated 2012).
Read-outs that look alike come from different tables or passages of the source.

Experiments:
[1] = test system: deoxymyoglobin (deoxy-Mb); assay: Myoglobin assay: conversion of deoxy-Mb to MbCO on direct addition of metal carbonyl; format: biochemical, horse; details: direct addition to myoglobin solution (66 μM), no light
Description: The release of CO from metal carbonyl complexes was assessed spectrophotometrically by measuring the conversion of deoxymyoglobin (deoxy-Mb) to carbonmonoxy myoglobin (MbCO). MbCO has a distinctive absorption spectrum between 500 and 600 nm, and changes at 540 nm were used to quantify the amount of CO liberated. Myoglobin solutions (66 μM final concentration) were prepared freshly by dissolving the protein in 0.04 M phosphate buffer (pH 6.8). Sodium dithionite (0.1%) was added to convert myoglobin to deoxy-Mb prior to each reading. All the spectra were measured using a Helios a spectrophotometer.
Various metal carbonyl complexes were tested for their ability to elicit MbCO formation when added directly to a deoxy-Mb solution. To different extents, [Ru(CO)3Cl2]2, [Ru(CO)2(DMSO)2Cl2], [Ru(CO)3Cl2(cytosine)] and […] all released CO when added directly to the Mb solution.
The metal carbonyl complex was solubilized in DMSO (9.7 mM stock solution), aliquots of 2 to 32 μl were added directly to 1 ml of deoxy-Mb solutions (66 μM) and absorption spectrum determined immediately after mixing the samples by inversion.

[2] = test system: deoxymyoglobin (deoxy-Mb); assay: Light-induced CO release diffusing through a membrane into myoglobin solution; format: biochemical, horse; details: for MbCO formation upon illumination: carbonyl solution exposed to cold light, gas diffusing through membrane
Description: Therefore release of CO was induced by exposing these metal carbonyl complexes to a cold light source and allowing the gas to diffuse through a membrane before reacting with myoglobin as shown in FIG. 1.
Five hundred microliters of iron pentacarbonyl ([Fe(CO)5], 99.9%) or 1 ml of dimanganese decacarbonyl ([Mn2(CO)10], 13 mM in DMSO) (see also chemical structure) were placed as carbonyl solution 2 in a plastic tube 1. A cell culture insert 3 (Costar) was sealed on top in order to create two separate chambers with a 0.6 cm air space between the solution 2 and an insert membrane 6 (Anapore™ 0.4 μm). 1.5 ml of deoxy-Mb solution (66 μM) was placed in the insert which was covered with Parafilm™ 5. The carbonyl solution was then exposed to cold light from a source 7 to stimulate CO release, allowing the gas to diffuse through the membrane 6 into the myoglobin solution 4. Aliquots of the myoglobin solution 4 were taken at different times and the conversion of deoxy-Mb to MbCO measured spectrophotometrically.

[3] = test system: Rat vascular smooth muscle cells; assay: Cell viability of vascular smooth muscle cells (colorimetric assay); format: cell-based; details: 0-100 μM, 24 h in complete medium
Description: Rat vascular smooth muscle cells were obtained from the Coriell Cell Repository (Camden, N.J., USA) and grown in Dulbecco's […] (MEM) supplemented with 20% foetal calf serum, 2×MEM vitamins, 2×MEM non-essential and essential amino acids, penicillin (100 units/ml) and streptomycin (0.1 mg/ml). Confluent cells were treated with different concentrations of metal carbonyl (introduced as DMSO solution—see section B) for various times and cell viability was assessed using a colorimetric assay kit from Promega (Madison, Wis., USA) as previously described (47) after 3 or 24 h incubation, or after 3 h exposure to the agents followed by 21 h incubation in complete media. Results are expressed as the mean±s.e.m. of 6 independent experiments and differences were considered statistically significant at P<0.05 (*).

[4] = test system: isolated rat hearts; details: L-NAME 25 μM perfusion
Description: Langendorff heart preparations were performed using male Lewis rats (300-350 g) as previously described by our group (35). […] (pH 7.4). Coronary perfusion pressure (CPP), a parameter indicative of coronary vessel contractility, was continuously measured by a pressure transducer connected to the aortic cannula and data analyzed with an Acknowledge software (BIOPAC System Inc.).
Hearts removed either from control rats (vehicle-treated) or from animals that were pre-treated with the heme oxygenase-1 inducer hemin (75 μmol/kg, i.p.) the day before, were initially equilibrated for 20 min on the Langendorff apparatus and then perfused with L-NAME (25 μM final concentration) to elicit vasoconstriction. The extent of CPP increase by L-NAME was also monitored over time in hemin-treated animals that received a heme oxygenase inhibitor (SnPPIX, 40 μmol/kg) 1 h prior to heart excision and in control hearts that were perfused with buffer supplemented with [Mn2(CO)10] (13 μM final concentration). Since [Mn2(CO)10] releases CO only by photodissociation, Krebs buffer containing [Mn2(CO)10] was exposed to a cold light source immediately before entering the aortic cannula.

[5] = L-NAME-induced increase in mean arterial pressure in anaesthetised Lewis rats; format: in vivo, rat; details: L-NAME 30 μmol/kg i.v.; [Ru(CO)3Cl2]2 60 μmol/kg i.v. 1 h before; hemin 75 μmol/kg i.p. 24 h before; SnPPIX 40 μmol/kg i.p.
Description: Lewis rats (280-350 g) were anaesthetised by intramuscular injection of 1 ml/kg Hypnorm (fentanyl 0.315 mg/ml and fluanisone 10 mg/ml) followed 5 min later by an intraperitoneal injection of 5 mg/kg diazepam. Specially designed femoral artery and venous catheters were then surgically implanted as previously described (40). The arterial cannula was connected to a Grass pressure transducer and blood pressure monitored continuously using a polygraph recorder. Experiments were conducted on anaesthetized animals and recordings were made within 30 min of the surgical procedure.
Control rats (vehicle-treated) and animals that were pre-treated with hemin (75 μmol/kg, i.p) 24 h prior to blood pressure monitoring were then administered with an intravenous injection of 30 μmol/Kg L-NAME to elicit an increase in mean arterial pressure. The extent of blood pressure increase by L-NAME was also monitored over time in hemin-treated animals that received SnPPIX (40 μmol/kg, i.p.) and in control rats previously injected with [Ru(CO)3Cl2]2 (60 μmol/kg, i.v.). In these two groups, SnPPIX or [Ru(CO)3Cl2]2 were administered to animals 1 h prior to L-NAME injection.

[6] = test system: HO-1; assay: Expression of heme oxygenase-1 in rat hearts (immunostaining, Northern blot); format: in vivo; details: 24 h after hemin treatment, i.p.
Description: For immunohistochemistry analysis, sections of heart muscles (5 μm thickness) were treated with 0.3% H2O2 in methanol to block endogenous peroxidase activity. Immunohistochemical staining was performed using rabbit polyclonal antibody against HO-1 (1:1000 dilution) as previously described (23). The presence of HO-1 was indicated by the development of a brown color. For Northern blot analysis, cardiac tissue was ground in a mortar under liquid nitrogen and suspended in guanidinium thiocyanate lysis buffer, Total RNA was then extracted using a modification of the method described by Chomczynski and Sacchi (49). RNA was run on a 1.3% denaturing agarose gel containing 2.2 M formaldehyde and transferred onto a nylon membrane overnight. The membrane was hybridized using [α-^32P]dCTP-labelled cDNA probes to rat HO-1 and GAPDH genes and bands analyzed using a densitometer as previously described (23, 50).
Hearts were removed from Lewis rats 24 h after treatment with vehicle (control) or hemin ([…], i.p.) and immunostaining for HO-1 was assessed. For Northern blot analysis, rats were treated with hemin (75 μmol/kg, i.p.) and hearts removed at different time points to assess HO-1 mRNA levels (+ve, positive control).

SMILES: [C-]#[O+].[C-]#[O+].[C-]#[O+].[C-]#[O+].[C-]#[O+].[C-]#[O+].[C-]#[O+].[C-]#[O+].[C-]#[O+].[C-]#[O+].[Mn].[Mn] [[Mn2(CO)10], dimanganese decacarbonyl]
- MbCO formation / CO release when added directly to deoxy-Mb solution [1]: did not result in any appreciable formation of carbonmonoxy myoglobin
- time to complete saturation of the myoglobin solution ([2]; 13 μmol/ml, continuous exposure to light): approximately 40 min
- MbCO formation upon illumination [2]: gradual increase in MbCO formation observed over time
- cytotoxicity on smooth muscle cells [3]: no major cytotoxicity
- effect on L-NAME-mediated vasoconstriction / rise in CPP ([4]; listed as (Mn2(CO)10)): unaffected
- effect on L-NAME-mediated vasoconstriction / rise in CPP ([4]; listed as [Mn2(CO10]): significantly delayed vasoconstriction and maintained CPP at much lower levels at the end of perfusion

SMILES: C=CC1=C(C)c2cc3[n-]c(cc4[n-]c(cc5nc(cc1n2)C(C)=C5C=C)c(C)c4CCC(=O)O)c(CCC(=O)O)c3C.[Cl-].[Fe+3] [hemin, ferriprotoporphyrin IX chloride]
- effect on L-NAME-mediated vasoconstriction / rise in CPP [4]: markedly attenuated
- effect on L-NAME-induced increase in blood pressure [5]: significant suppression
- HO-1 protein and mRNA expression in hearts [6]: highly expressed

SMILES: [C-]#[O+].[C-]#[O+].[C-]#[O+].[C-]#[O+].[C-]#[O+].[Fe] [[Fe(CO)5], iron pentacarbonyl]
- MbCO formation / CO release when added directly to deoxy-Mb solution [1]: did not result in any appreciable formation of carbonmonoxy myoglobin
- MbCO formation upon illumination [2]: gradual increase in MbCO formation observed over time
